Measured values published in patent US12617773B2, “Azetidin-3-ylmethanol derivatives as CCR6 receptor modulators” (Idorsia Pharmaceuticals Ltd, priority 2020, dated 2026).

molecular target: T1, human CCR6 (Homo sapiens, UniProt P51684); assay: FLIPR assay (inhibition of CCL20-induced calcium signal); assay type: cell-based; conditions: FLIPR IC50 (nM), HEK-293 cells expressing human CCR6; mean values where determined several times
T1 construct: expressed in transfected cells; host or cells: HEK-293
T1 sequence (P51684 1-374): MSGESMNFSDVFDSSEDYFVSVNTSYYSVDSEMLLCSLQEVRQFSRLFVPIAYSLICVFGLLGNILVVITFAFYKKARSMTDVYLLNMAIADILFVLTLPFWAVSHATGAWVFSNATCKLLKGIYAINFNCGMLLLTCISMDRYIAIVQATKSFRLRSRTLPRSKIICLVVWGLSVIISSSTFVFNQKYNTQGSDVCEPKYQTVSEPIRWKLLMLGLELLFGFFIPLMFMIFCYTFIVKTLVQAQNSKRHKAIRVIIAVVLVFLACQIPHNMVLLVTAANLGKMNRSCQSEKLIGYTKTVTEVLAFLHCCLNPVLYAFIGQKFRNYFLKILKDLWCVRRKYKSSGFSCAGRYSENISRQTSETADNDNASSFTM
Method: FLIPR assay: The bioactivity of compounds is tested in a fluorometric imaging plate reader (FLIPR: Molecular Devices) using engineered HEK-293 cells expressing the human CCR6 (GenBank: AY242126). Frozen cells are plated on Poly-L-Lysine precoated 384-well plates 2 days prior to bioassay in DMEM medium supplemented with 10% FCS and 1% Penicillin-Streptomycin. […] This buffer, but lacking the dye, is also used for washing and compound dilution steps (assay buffer). Cells are washed free of excess dye with a wash-station (Biotek), leaving 40 microliter of assay buffer at the end. Cells were incubated for 15 minutes at room temperature in the dark, before adding compounds. Stock solutions of test compounds are made up at a concentration of 10 mM in DMSO, and serially diluted first in DMSO and then transferred in assay buffer to concentrations required for inhibition dose response curves. After a 45-minute incubation period in assay buffer at room temperature, 10 microliters of each compound dilution are transferred from a compound plate to the plate containing the recombinant cells in the FLIPR instrument according to the manufacturer's instructions. After cells and compounds were preincubated for 30 minutes at room temperature in the dark, 10 microliter agonist CCL20 (Peprotech) at a final concentration of 10 nM is added, again using the FLIPR instrument. Changes in fluorescence are monitored before and after addition of the test compounds and agonist. Emission peak values above base level after CCL20 addition are exported after base line subtraction.
The calculated IC50 values may fluctuate depending on the daily assay performance. Fluctuations of this kind are known to those skilled in the art.

SMILES	IC50 [nM]
CCc1ccc([C@](O)(c2cncc(N3CC4CC(C3)O4)c2)C2(C)CN(C)C2)cc1 [Example 243]	211

same assay, conditions: HEK-293 cells expressing human CCR6; mean values where determined several times; read-out: FLIPR IC50

IC50 [nM]	SMILES
29.3	CC(C)c1ccc([C@](O)(c2cncc(N3CC(Cc4ccccc4)OC3=O)c2)C2(C)CN(C)C2)cc1 (some centres unmarked) [Example 195]
26	CC(C)c1ccc([C@](O)(c2cncc(OCc3ccccc3)c2)C2(C)CN(C)C2)cc1 [Example 245, (R)-(5-Benzyloxy-pyridin-3-yl)-(1,3-dimethyl-azetidin-3-yl)-(4-isopropyl-phenyl)-methanol]
265	CC(C)c1ccc([C@](O)(c2cnnc(N3CC4(CCOCC4)CC3=O)c2)C2(C)CN(C)C2)cc1 [Example 439]
242	CC(C)c1ccc([C@](O)(c2cncc(CCC3(O)CCOCC3)c2)C2(C)CN(C)C2)cc1 [Example 62]
117	CC(C)c1ccc([C@](O)(c2cncc(-c3noc(C4CCN(S(=O)(=O)CCO)CC4)n3)c2)C2(C)CN(C)C2)cc1 [Example 385]
73.5	CC(C)(C)N1CC(C)([C@](O)(c2ccc(OC(F)(F)F)cc2)c2cncc(N3CCCC3)c2)C1 [Example 12, (R)-(1-tert-Butyl-3-methyl-azetidin-3-yl)-(5-pyrrolidin-1-yl-pyridin-3-yl)-(4-trifluoromethoxy-phenyl)-methanol]
476	CC(C)c1ccc([C@](O)(c2cncc(N3CCC4(CCOCC4)C3=O)c2)C2(C)CN(C)C2)cc1 [Example 216]
60.2	CCc1ccc(C(O)(c2cncc(N3CCCC3)c2)C2(C)CN(C)C2)cc1 (centres unmarked) [Example 152]
35.9	CC(C)c1ccc([C@](O)(c2cncc(-c3noc(C4(F)CCOCC4)n3)c2)C2(C)CN(C)C2)cc1 [Example 124]
163	CC1CN(Cc2noc(-c3cncc([C@@](O)(c4ccc(C(C)C)cc4)C4(C)CN(C)C4)c3)n2)CC(C)O1 (some centres unmarked) [Example 90]
131	CC(C)c1ccc([C@](O)(c2cncc(-c3noc(C4CNC(=O)C4)n3)c2)C2(C)CN(C)C2)cc1 (some centres unmarked) [Example 358]
7.98	CC(C)c1ccc([C@](O)(c2cnnc(N3CC(c4cccc(C(C)C)n4)CC3=O)c2)C2(C)CN(C)C2)cc1 (stereo partly drawn) [Example 682, 1-{5-[(R)-(1,3-Dimethyl-azetidin-3-yl)-hydroxy-(4-isopropyl-phenyl)-methyl]-pyridazin-3-yl}-4-(6-isopropyl-pyridin-2-yl)-pyrrolidin-2-one]
33.5	CC(C)c1ccc([C@](O)(c2cncc(C#CC3(O)CCCC3)c2)C2(C)CN(C)C2)cc1 [Example 18]
70.8	CC(C)c1ccc([C@](O)(c2cncc(N3CCC4(CCC4)C3=O)c2)C2(C)CN(C)C2)cc1 [Example 212]
24.2	CC(C)c1ccc([C@](O)(c2cnnc(OC3CCCC3(C)C)c2)C2(C)CN(C)C2)cc1 (stereo partly drawn) [Example 392, (R)-(1,3-Dimethyl-azetidin-3-yl)-[6-(2,2-dimethyl-cyclopentyloxy)-pyridazin-4-yl]-(4-isopropyl-phenyl)-methanol]
986	CC(=O)N1CCC(c2nc(-c3cncc([C@@](O)(c4ccc(OC(C)C)cc4)C4(C)CN(C)C4)c3)no2)CC1 [Example 555]
117	CC(=O)N1CCC(c2nc(-c3cncc([C@@](O)(c4ccc(OC(F)(F)F)cc4)C4(C)CN(C)C4)c3)no2)CC1 [Example 554]
99.3	CN1CC(C)(C(O)(c2ccc(OC(F)(F)F)cc2)c2ccc(OC3CCOCC3)nc2)C1 (centres unmarked) [Example 268, (1,3-Dimethyl-azetidin-3-yl)-[6-(tetrahydro-pyran-4-yloxy)-pyridin-3-yl]-(4-trifluoromethoxy-phenyl)-methanol]
82.4	Cc1cccc(C(C)(O)C#Cc2cncc([C@@](O)(c3ccc(CC(F)(F)F)cc3)C3(C)CN(C)C3)c2)n1 (some centres unmarked) [Example 660]
239	CC(=O)N1CCC(c2nc(-c3cncc([C@@](O)(c4ccc(C(C)C)cc4)C4(C)CN(CCC(F)(F)F)C4)c3)no2)CC1 [Example 583]
86.8	CC(C)c1ccc([C@](O)(c2cncc(-c3nc(COC4CCOCC4)no3)c2)C2(C)CN(C)C2)cc1 [Example 93]
80.6	CC(C)c1ccc([C@](O)(c2cncc(CCC3(O)CCc4cccnc43)c2)C2(C)CN(C)C2)cc1 (some centres unmarked) [Example 78]
53.8	CC(C)c1ccc([C@](O)(c2cncc(-c3noc(CCC#N)n3)c2)C2(C)CN(C)C2)cc1 [Example 499, 3-(3-{5-[(R)-(1,3-Dimethyl-azetidin-3-yl)-hydroxy-(4-isopropyl-phenyl)-methyl]-pyridin-3-yl}-[1,2,4]oxadiazol-5-yl)-propionitrile]

IC50 [nM]	SMILES
84.9	CC(C)c1ccc([C@](O)(c2cncc(-c3noc(COC4CCOCC4)n3)c2)C2(C)CN(C)C2)cc1 [Example 126]
119	CC(C)c1ccc([C@](O)(c2cncc(C#CC(C)(C)NC(=O)C3CC3)c2)C2(C)CN(C)C2)cc1 [Example 588]
48.8	COC(=O)c1ccccc1CCc1cncc([C@@](O)(c2ccc(C(C)C)cc2)C2(C)CN(C)C2)c1 [Example 409]
324	CC(C)c1ccc([C@](O)(c2cncc(OCCO)c2)C2(C)CN(C)C2)cc1 [Example 260, 2-{5-[(R)-(1,3-Dimethyl-azetidin-3-yl)-hydroxy-(4-isopropyl-phenyl)-methyl]-pyridin-3-yloxy}-ethanol]
411	CC(=O)N1CCC(c2nc(-c3cncc([C@@](O)(c4ccc(C(C)C)cc4)C4(C)CN(CC(F)F)C4)c3)no2)CC1 [Example 579, 1-[4-(3-{5-[(R)-[1-(2,2-Difluoro-ethyl)-3-methyl-azetidin-3-yl]-hydroxy-(4-isopropyl-phenyl)-methyl]-pyridin-3-yl}-[1,2,4]oxadiazol-5-yl)-piperidin-1-yl]-ethanone]
252	[2H]C([2H])([2H])C(=O)N1CC(F)(c2nc(-c3cncc([C@@](O)(c4ccc(C(C)C)cc4)C4(C)CN(C)C4)c3)no2)C1 [Example 345]
44.8	CC(C)c1ccc([C@](O)(c2cncc(C#CC(C)(C)N3CCCC3=O)c2)C2(C)CN(C)C2)cc1 [Example 592]
112	CC(C)c1ccc([C@](O)(c2cncc(-c3noc(C4CCN(C(=O)C5COC5)CC4)n3)c2)C2(C)CN(C)C2)cc1 [Example 476]
73.1	CC(C)c1ccc([C@](O)(c2cncc(-c3noc(CN4C(=O)CC(C)(C)C4=O)n3)c2)C2(C)CN(C)C2)cc1 [Example 483]
49.1	Cc1cc(-c2nc(-c3cncc([C@@](O)(c4ccc(C(C)C)cc4)C4(C)CN(C)C4)c3)no2)ncn1 [Example 508]
41	CC(C)c1ccc([C@](O)(c2cncc(-c3noc(C4CCCOC4)n3)c2)C2(C)CN(C)C2)cc1 (some centres unmarked) [Example 115]
126	CC(C)c1ccc([C@](O)(c2cncc(C#CCCO)c2)C2(C)CN(C)C2)cc1 [Example 22]
77.6	CC(C)c1ccc([C@](O)(c2cncc(-c3noc(C4CCN(C(=O)CC(F)(F)F)CC4)n3)c2)C2(C)CN(C)C2)cc1 [Example 473, 1-[4-(3-{5-[(R)-(1,3-Dimethyl-azetidin-3-yl)-hydroxy-(4-isopropyl-phenyl)-methyl]-pyridin-3-yl}-[1,2,4]oxadiazol-5-yl)-piperidin-1-yl]-3,3,3-trifluoro-propan-1-one]
90	CC(C)c1ccc([C@](O)(c2cncc(-c3noc(C4CCNC(=O)C4)n3)c2)C2(C)CN(C)C2)cc1 (some centres unmarked) [Example 362]
40.3	CC(C)CN1CC(c2nc(-c3cncc([C@@](O)(c4ccc(C(C)C)cc4)C4(C)CN(C)C4)c3)no2)CC1=O (some centres unmarked) [Example 353]
742	CN1CC(C)([C@](O)(c2ccc(C(C)(F)F)cc2)c2cncc(-c3noc(C(C)(C)O)n3)c2)C1 [Example 548]
54.3	CC1([C@](O)(c2ccc(OC(F)(F)F)cc2)c2cncc(N3CCCC3)c2)CN(C2CCC2)C1 [Example 7]
120	CC(C)c1ccc([C@](O)(c2cncc(-c3noc(C4CCN(C)C(=O)C4)n3)c2)C2(C)CN(C)C2)cc1 (some centres unmarked) [Example 347]
84.9	CC(C)c1ccc([C@](O)(c2cncc(CCc3ccccc3CO)c2)C2(C)CN(C)C2)cc1 [Example 410]
167	CN1CC(C)(C(O)(c2ccc(OC(F)(F)F)cc2)c2ccc(OCc3ccccc3)nc2)C1 (centres unmarked) [Example 264]
88.3	Cc1cc(C(C)(O)C#Cc2cncc([C@@](O)(c3ccc(C(C)C)cc3)C3(C)CN(C)C3)c2)nn1C (single isomer, unassigned) [Example 402]
71.6	CC(C)c1ccc([C@](O)(c2cncc(C#CC(C)(C)N3CCOC3=O)c2)C2(C)CN(C)C2)cc1 [Example 591]
11.8	CC(C)c1ccc([C@](O)(c2cncc(CCC(C)(O)c3cccc(F)c3)c2)C2(C)CN(C)C2)cc1 (some centres unmarked) [Example 67]
